Data as given in paper PMC4685012 (Bioorganic & medicinal chemistry, 2015).

Columns and labels:
MCF-7 cells = assay: Cell viability; type: cell-based; conditions: for IC50: Homo sapiens, MCF7, 72 h, read-out: Anti-proliferative activity IC50, MCF-7; for Antiproliferative activity against MCF-7, in words: MCF-7 cells
A549 cells = assay: Cell viability; type: cell-based; conditions: for Antiproliferative activity against A549, in words: A549 cells; for IC50: Homo sapiens, A549, 72 h, read-out: Anti-proliferative activity IC50, A549
[1] = test system: TNF-α, IL-1α, IL-1β mRNA expression; assay: Quantitative RT-PCR of NTHi-induced cytokine mRNA in BEAS-2B cells; type: cell-based, human; conditions: 1 µM, 2 h pretreatment, 1.5 h NTHi, relative to SAHA
HDAC6 = biological target: T1, HDAC6 (Homo sapiens, UniProt Q9UBN7); assay: HDAC6 inhibition, label-free mass spectrometry-based SAMDI assay; type: biochemical; conditions: vs 26e as printed
T1 sequence (Q9UBN7 1-1215): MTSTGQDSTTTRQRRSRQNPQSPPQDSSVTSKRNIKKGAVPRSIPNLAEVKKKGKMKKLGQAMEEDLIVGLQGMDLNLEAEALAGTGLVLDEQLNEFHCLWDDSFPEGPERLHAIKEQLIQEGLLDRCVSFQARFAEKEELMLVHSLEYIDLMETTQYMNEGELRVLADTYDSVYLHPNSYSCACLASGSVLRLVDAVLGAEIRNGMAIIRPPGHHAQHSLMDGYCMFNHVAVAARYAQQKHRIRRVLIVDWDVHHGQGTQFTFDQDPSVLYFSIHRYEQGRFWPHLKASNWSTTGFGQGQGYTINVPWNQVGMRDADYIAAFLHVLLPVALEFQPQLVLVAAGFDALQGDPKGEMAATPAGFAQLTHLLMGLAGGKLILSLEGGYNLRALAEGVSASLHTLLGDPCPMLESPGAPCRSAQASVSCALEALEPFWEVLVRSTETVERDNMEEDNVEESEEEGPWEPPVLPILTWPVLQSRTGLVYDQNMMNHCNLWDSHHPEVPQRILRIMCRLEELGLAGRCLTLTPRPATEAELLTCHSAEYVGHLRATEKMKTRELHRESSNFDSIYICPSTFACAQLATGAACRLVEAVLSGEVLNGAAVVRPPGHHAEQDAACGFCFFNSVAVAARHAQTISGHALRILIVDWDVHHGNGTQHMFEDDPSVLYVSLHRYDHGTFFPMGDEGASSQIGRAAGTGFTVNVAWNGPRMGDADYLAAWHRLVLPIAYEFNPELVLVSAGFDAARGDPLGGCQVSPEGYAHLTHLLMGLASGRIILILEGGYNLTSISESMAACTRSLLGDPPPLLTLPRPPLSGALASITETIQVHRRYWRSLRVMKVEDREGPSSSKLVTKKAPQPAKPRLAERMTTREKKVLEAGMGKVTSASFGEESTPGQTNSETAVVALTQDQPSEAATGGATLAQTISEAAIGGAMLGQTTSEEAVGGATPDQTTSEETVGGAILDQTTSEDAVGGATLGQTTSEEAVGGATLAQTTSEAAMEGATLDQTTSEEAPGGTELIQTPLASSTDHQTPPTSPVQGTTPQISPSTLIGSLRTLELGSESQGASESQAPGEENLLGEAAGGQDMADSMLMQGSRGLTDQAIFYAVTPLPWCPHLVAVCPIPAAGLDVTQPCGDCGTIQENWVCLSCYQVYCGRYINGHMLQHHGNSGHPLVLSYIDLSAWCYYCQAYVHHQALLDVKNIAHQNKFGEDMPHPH

HDAC8 = biological target: T2, HDAC8 (Homo sapiens, UniProt Q9BY41); assay: HDAC8 inhibition, label-free mass spectrometry-based SAMDI assay; type: biochemical; conditions: vs 26e as printed
T2 sequence (Q9BY41 1-377): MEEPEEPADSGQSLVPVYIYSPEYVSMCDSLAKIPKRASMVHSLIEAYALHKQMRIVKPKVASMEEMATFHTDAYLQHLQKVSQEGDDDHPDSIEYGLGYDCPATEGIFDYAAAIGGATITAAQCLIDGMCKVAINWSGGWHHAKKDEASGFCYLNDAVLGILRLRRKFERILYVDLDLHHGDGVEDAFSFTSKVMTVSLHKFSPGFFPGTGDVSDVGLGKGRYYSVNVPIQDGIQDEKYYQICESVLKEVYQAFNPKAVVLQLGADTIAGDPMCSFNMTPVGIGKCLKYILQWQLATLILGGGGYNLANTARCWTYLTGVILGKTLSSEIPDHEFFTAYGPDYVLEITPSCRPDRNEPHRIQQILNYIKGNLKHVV

NF-κB = NF-κB luciferase assay in NTHi-stimulated BEAS-2B cells; type: cell-based, human
HDAC1/2 = conditions: read-out: HDAC1/2 IC50; cited from earlier work

IC50 (MCF-7 cells) | IC50 (A549 cells) | Structure (SMILES) | Antiproliferative activity against MCF-7, in words (MCF-7 cells) | Antiproliferative activity against A549, in words (A549 cells) | other results
> 20 µM | > 20 µM | CC[C@@H]1OC(=O)[C@@H](C)[C@H](O[C@H]2C[C@@](C)(OC)[C@@H](O)[C@H](C)O2)[C@@H](C)[C@H](O[C@H]2O[C@@H](C)C[C@@H](N(C)C)[C@@H]2O)[C@](C)(O)C[C@H](C)CN(Cc2ccc(-c3cn(CCCCC(=O)NO)nn3)cc2)[C@H](C)[C@H](O)[C@@]1(C)O [Compound 8d, (Azithromycin-(N10-(4-triazolylbenzyl)))-N-hydroxypentanamide] | devoid of antiproliferative activities | devoid of antiproliferative activities | 
 |  | CC[C@H]1OC(=O)[C@H](C)C(=O)[C@H](C)[C@@H](O[C@@H]2O[C@H](C)C[C@H](N(C)Cc3ccc(-c4cn(CCCCCCC(=O)NO)nn4)cc3)[C@H]2O)[C@@](C)(OC)C[C@@H](C)C2=NCCN3C(=O)O[C@@]1(C)[C@H]3[C@H]2C [Compound 26f] |  |  | Suppression of NTHi-induced TNF-α, IL-1α, IL-1β mRNA expression [1]: more significantly suppressed
 |  | CC[C@@H]1OC(=O)[C@@H](C)[C@H](O[C@H]2C[C@@](C)(OC)[C@@H](O)[C@H](C)O2)[C@@H](C)[C@H](O[C@H]2O[C@@H](C)C[C@@H](N(C)C)[C@@H]2O)[C@](C)(O)C[C@H](C)CN(Cc2ccc(-c3cn(CCCCCCC(=O)NO)nn3)cc2)[C@H](C)[C@H](O)[C@@]1(C)O [Compound 8f, (Azithromycin-(N10-(4-triazolylbenzyl)))-N-hydroxyheptanamide] |  |  | Suppression of NTHi-induced TNF-α, IL-1α, IL-1β mRNA expression [1]: more significantly suppressed
 |  | CC[C@@H]1OC(=O)[C@H](C)[C@@H](O[C@@H]2C[C@](C)(OC)[C@H](O)[C@@H](C)O2)[C@@H](C)[C@@H](O[C@@H]2O[C@H](C)C[C@H](N(C)Cc3cccc(-c4cn(CCCCCCC(=O)NO)nn4)c3)[C@H]2O)[C@](C)(O)C[C@@H](C)CN(C)[C@H](C)[C@@H](O)[C@]1(C)O [Compound 16b, (Azithromycin-3′-(N-(3-triazolylbenzyl)))-N-hydroxyheptanamide] | potently inhibited | potently inhibited | 
 |  | CC[C@H]1OC(=O)[C@H](C)C(=O)[C@H](C)[C@@H](O[C@@H]2O[C@H](C)C[C@H](N(C)Cc3cccc(-c4cn(CCCCCCC(=O)NO)nn4)c3)[C@H]2O)[C@@](C)(OC)C[C@@H](C)C2=NCCN3C(=O)O[C@@]1(C)[C@H]3[C@H]2C [Compound 25b, (Tricyclic Ketolide-3′-(N-(3-triazolylbenzyl)))-N-hydroxyheptanamide] | potently inhibited |  | Fold more potent against HDAC6 than 26e (HDAC6): approximately 2 fold; Fold more potent against HDAC8 than 26e (HDAC8): ~5 fold
 |  | CC[C@@H]1OC(=O)[C@@H](C)[C@H](O[C@@H]2C[C@](C)(OC)[C@@](O)(CN(C)C)[C@@H](C)O2)[C@H](C)[C@H](O[C@@H]2O[C@H](C)C[C@H](N(C)Cc3ccc(-c4cn(CCCCCCC(=O)NO)nn4)cc3)[C@H]2O)[C@@](C)(OC)C[C@H](C)C(=O)[C@@H](C)[C@@H](O)[C@@]1(C)O [Compound 49b, (Clarithromycin-(4′-N-(4-benzyltriazolyl))-4′′-(N,N-dimethylaminomethyl))-N-hydroxyheptanamide] | potently inhibited | potently inhibited | 
> 20 µM | > 20 µM | CC[C@@H]1OC(=O)[C@H](C)[C@@H](O[C@@H]2C[C@](C)(OC)[C@H](O)[C@@H](C)O2)[C@@H](C)[C@@H](O[C@@H]2O[C@H](C)C[C@H](N(C)Cc3ccccc3-c3cn(CCCCCCC(=O)NO)nn3)[C@H]2O)[C@](C)(O)C[C@@H](C)CN(C)[C@H](C)[C@@H](O)[C@]1(C)O [Compound 15b, (Azithromycin-3′-(N-(2-triazolylbenzyl)))-N-hydroxyheptanamide] | devoid of antiproliferative activities | devoid of antiproliferative activities | 
> 20 µM | > 20 µM | CC[C@H]1OC(=O)[C@H](C)C(=O)[C@H](C)[C@@H](O[C@@H]2O[C@H](C)C[C@H](N(C)Cc3ccccc3-c3cn(CCCCCCC(=O)NO)nn3)[C@H]2O)[C@@](C)(OC)C[C@@H](C)C2=NCCN3C(=O)O[C@@]1(C)[C@H]3[C@H]2C [Compound 24b, (Tricyclic Ketolide-3′-(N-(2-triazolylbenzyl)))-N-hydroxyheptanamide] | devoid of antiproliferative activities | devoid of antiproliferative activities | 
 |  | CC[C@@H]1OC(=O)[C@@H](C)[C@H](O[C@H]2C[C@@](C)(OC)[C@](O)(CN(C)Cc3ccc(-c4cn(CCCCCCC(=O)NO)nn4)cc3)[C@H](C)O2)[C@H](C)[C@H](O[C@@H]2O[C@H](C)C[C@H](N(C)C)[C@H]2O)[C@@](C)(OC)C[C@H](C)C(=O)[C@@H](C)[C@@H](O)[C@@]1(C)O [Compound 38f] | potently inhibited | potently inhibited | Suppression of NTHi-induced TNF-α, IL-1α, IL-1β mRNA expression [1]: more significantly suppressed
> 20 µM | > 20 µM | CC[C@H]1OC(=O)[C@@H](C)[C@H](O[C@H]2C[C@@](C)(OC)[C@@H](O)[C@H](C)O2)[C@H](C)[C@H](O[C@H]2O[C@@H](C)C[C@@H](N(C)Cc3ccc(-c4cn(CCCC(=O)NO)nn4)cc3)[C@@H]2O)[C@@](C)(O)C[C@H](C)CN(C)[C@@H](C)[C@H](O)[C@@]1(C)O [Compound 17c] | devoid of antiproliferative activities | devoid of antiproliferative activities | 
> 20 µM | > 20 µM | CC[C@H]1OC(=O)[C@H](C)C(=O)[C@H](C)[C@@H](O[C@@H]2O[C@H](C)C[C@H](N(C)Cc3cccc(-c4cn(CCCCCC(=O)NO)nn4)c3)[C@H]2O)[C@@](C)(OC)C[C@@H](C)C2=NCCN3C(=O)O[C@@]1(C)[C@H]3[C@H]2C [Compound 25a, (Tricyclic Ketolide-3′-(N-(3-triazolylbenzyl)))-N-hydroxyhexanamide] | non-cytotoxic | non-cytotoxic | Effect on NF-κB activation, in words (NF-κB; NTHi infected BEAS-2B cells, 1 µM pre-screen): suppressing NF-κB activation; NF-κB inhibition IC50 (NF-κB; NTHi-stimulated BEAS-2B cells, luciferase): no dose-dependent effect
 |  | CC[C@H]1OC(=O)[C@@H](C)[C@H](O[C@H]2C[C@@](C)(OC)[C@@H](O)[C@H](C)O2)[C@H](C)[C@H](O[C@H]2O[C@@H](C)C[C@@H](N(C)Cc3ccc(-c4cn(CCCCCCC(=O)NO)nn4)cc3)[C@@H]2O)[C@@](C)(O)C[C@H](C)CN(C)[C@@H](C)[C@H](O)[C@@]1(C)O [Compound 17f] |  |  | IC50 (HDAC1/2): 0.0139 µM
> 20 µM | > 20 µM | CC[C@H]1OC(=O)[C@@H](C)[C@H](O[C@H]2C[C@@](C)(OC)[C@](O)(CN(C)Cc3ccc(-c4cn(CCCCCCC(=O)NO)nn4)cc3)[C@H](C)O2)[C@H](C)[C@H](O[C@H]2O[C@@H](C)C[C@@H](N(C)C)[C@@H]2O)[C@@](C)(O)C[C@H](C)CN(C)[C@@H](C)[C@H](O)[C@@]1(C)O [Compound 39f, (Azithromycin-4′′-(methylamino)-N(methyl)(4-benzyltriazolyl))-N-hydroxyheptanamide] | non-cytotoxic | non-cytotoxic | 
